Experimental data reported in patent US20050010126A1, “Assessment of concentration of inhalational compounds in the brain” (priority 2001, published 2005).
One block for each compound: values may come before it.

Tests used:
[1] = alveolar membrane factor M of an inhalational compound; assay type: in vivo, patients
From the text: As the gas penetrates the alveolar membrane and enters the pulmonary capillary blood flow, it must follow the Fick's principal. See Katzung, R. G. (1998) Basic principles, introduction in basic and clinical pharmacology Appleton-Lange p 5. The Fick's principal defines the rate of penetrating the alveolar membrane as: DAk/x (Ci-Cb') D is a diffusion constant, A is the area of the membrane (proportional to the pulmonary capillary flow or cardiac output), k is a solubility coefficient, x is the thickness of the membrane, Ci is an inspired compound concentration, and Cb' is the mixed venous compound concentration. Assuming that the pulmonary capillary flow or the cardiac output is constant, then, for a given inhalational compound, DAk/x is a constant. This constant DAk/x is defined as a membrane factor, M, which varies from one inhalational compound to another. […] Since the membrane factor may vary slightly among patients, a more precise determination of the membrane factor can be performed as described below. The rate of penetrating the alveolar membrane DAk/x (Ci-Cb') can be expressed as: M(Ci-Cb'), in which M is DAk/x. When measuring an uptake of an inhalational compound-containing gas in each breathing cycle, the rate of the uptake is a function of a difference between the inspired concentration (Ci) and the expired concentration (Ce). The difference can be expressed as: Ci-Ce. Ci-Ce. and M (Ci-Cb') both represent the rate of uptake of an inhalational compound: Ci-Ce=M(Ci-Cb'), or M=(Ci-Ce)/(Ci-Cb'). During the initial introduction of an inhalational compound (before the FRC is filled with the gas), the membrane factor M for an individual can be approximated by assuming Cb'=0: M=(Ci-Ce)/Ci=1-(Ce/Ci).

[2] = assessment of mixed venous and brain anesthetic concentration from inspired and expired concentrations
From the text: At the stage of anesthesia (after the FRC is filled with the gas), the equation: Ci′−Ce′=M (Ci′−Cb′) can be used to calculate the compound concentration in the mixed venous blood (Cb′), in which Ci′ and Cb′ are the inspired compound concentration and the expired compound concentration, respectively: Cb′=[Ci′(M−1)+Ce′]/M.
As discussed above, Cb=(A+J)/2 and (A+J)/2=(Ce′+2Cb′)/3 or (Ce′+3Cb′)/4, the compound concentration in the brain (Cb) can be expressed as: Cb=(Ce′+2Cb′)/3 or (Ce+3Cb′)/4.
Thus, with measurements of the expired compound concentration (Ce′) and the mixed venous compound concentration (Cb′), the compound concentration in the brain (Cb) can be readily obtained. Below are two examples of how to assess brain anesthetic concentrations by this method.
A tube is connected to the circle system of an anesthesia machine consisting of gas flowmeters, a compound vaporizer, supply of oxygen, air and nitrous oxide gas, and a ventilator (e.g., Detex-Ohmeda, Finland, or Drager, Germany). The gas is then delivered to the patient by the anesthesia machine. […] Near the connection between the circle system and the tube, a side arm sampling site is linked to a gas monitoring equipment (e.g., an infra-red monitor or a mass spectrometer). Typically, a sampling speed is 200 mL/min. […] A more precise determination of M is performed at the end of 3 min, when 85-95% of the FRC has been filled with the gas.

[3] = general value for the compound, for most patients

Structure (SMILES): FC(F)OC(F)C(F)(F)F (stereo not drawn) [desflurane]
patient's membrane factor M = (Ci-Ce)/Ci ([1]; desflurane, inspired 6%, expired 4.8% at 3-4 minutes (85-95% of FRC filled)): 0.2 | membrane factor M (DAk/x) [1, 3]: 0.2 | concentration in the brain (Cb) = (Ce'+3Cb')/4 ([2]; desflurane, inspired 6.2%, expired 5.4%, M 0.2): 3.0%

Structure (SMILES): COC(F)(F)C(Cl)Cl [methoxyflurane]
membrane factor M (DAk/x) [1, 3]: 0.8

The remaining lines, values ahead:

membrane factor M (DAk/x) ([1]; human, in vivo): 0.5
Structure (SMILES): FC(F)(F)C(Cl)Br (stereo not drawn) [halothane]

membrane factor M (DAk/x) ([1]; human, in vivo): 0.4
Structure (SMILES): FC(F)OC(Cl)C(F)(F)F (stereo not drawn) [isoflurane]

patient's membrane factor M = (Ci-Ce)/Ci ([1]; human, in vivo): 0.214 | brain concentration (Cb) = (Ce'+2Cb')/3 ([2]; human, in vivo, 30 min): 1.77% | concentration in the mixed venous blood (Cb') ([2]; human, in vivo, 30 min): 1.16%
Structure (SMILES): FCOC(C(F)(F)F)C(F)(F)F [sevoflurane]
